According to patent US8552052B2, “Use of diindolylmethane-related indoles for the treatment and prevention of respiratory syncytial virus associated conditions” (BioResponse, L.L.C., priority 2004, dated 2013):
“Also recorded” adds a separate entry of the source.

How the values were obtained:
[1] = lung tissue; cited from earlier work
[2] = system: Mitogen Activated Protein Kinase (MAPK) cell signaling pathway; conditions: cell culture; cited from earlier work
[3] = system: RSV Long strain; assay: Pulmonary histopathology in RSV infected BALB/c mice; format: in vivo; conditions: DIM administered orally or parenterally
Experimental: (§1) The Following Experimental BALB/c Groups and Treatment Protocol Using DIM were Studied: • 1. RSV infected positive control group, infected with RSV and injected subcutaneously (SC) once daily with DMSO/Phosphate Buffered Saline (PBS) vehicle. • 2. RSV infected, Low dose Parenteral DIM group (15 mg/kg/day), injected SC once daily with DIM suspension • 3. RSV infected, High dose DIM Group (150 mg/kg/day), injected SC once daily with DIM suspension • 4. RSV infected, orally treated DIM group (250 mg/kg/day from absorption enhanced DIM [Example 6.1]), added to powdered feed • 5. Uninfected negative control group, nasally administered vehicle only, and injected subcutaneously (SC) once daily with DMSO/PBS vehicle
Mouse treatment, infection and harvest. […]
To determine viral titer, the lung was homogenized in DMEM supplemented with 2% FBS (2 ml DMEM per 100 mg tissue) in cold. […] Multiple, 4 μm thick sections were stained with haematoxylin & eosin (H&E) and scored for cellular inflammation under light microscopy by two independent researchers. Inflammatory infiltrates were scored by enumerating the layers of inflammatory cells surrounding the vessels and bronchioles. […] A total of about 20 spaces per lung were counted for each animal. […] The concentration of cysteinyl leukotrienes conjugates in the BALF was determined by an ELISA kit following the manufacturer's protocol (R&D Systems, Minneapolis, Minn.). […]

[4] = system: prostate cancer cell lines; conditions: cited from earlier work
[5] = system: RSV Long strain; assay: Respiratory rate in RSV infected BALB/c mice; format: in vivo; conditions: oral, SC low dose and SC high dose DIM; 6 and 10 days pi; vs RSV-infected, untreated control mice; FIG. 6
Experimental: as §1
(§2) Mouse treatment, infection and harvest. Intranasal application of RSV in BALB/c mice followed an established procedure (Bitko et al., 2005, Nat Med. 11(1):50-5) and causes predictable pulmonary disease and inflammation. For RSV infection, RSV stock was diluted such that each mouse was given 10^7 pfu (plaque forming unit) of the virus intranasally. […]
Pulmonary viral assay and clinical measurements. […] Respiratory rates (breaths per min) were determined by counting over a period of 2-3 mins. […]

[6] = system: Caspase 3; assay: Ac-DEVD-AFC caspase-3 protease assay of lung homogenate of RSV infected BALB/c mice; format: in vivo; conditions: oral and subcutaneous DIM, FIG. 5A
Experimental: as §1, §2

c1ccc2c(Cc3c[nH]c4ccccc34)c[nH]c2c1 [DIM, 3,3′-diindolylmethane]
tissue distribution [1]: concentrated in lung tissue | MAPK cell signaling pathway activation [2]: activate the Mitogen Activated Protein Kinase (MAPK) cell signaling pathway | severity in lung pathology [3]: reduced severity in lung pathology | anti-androgen activity [4]: anti-androgen activity similar to non-indole antiandrogen drugs | respiratory rate [5]: normalized respiratory rate; also recorded: lower respiratory rate | apoptosis in mouse lung homogenate: activated Caspase 3 [6]: increased apoptosis in lung tissue homogenate; also recorded: increased levels of apoptosis-specific, activated Caspase 3
